The values below are quoted from earlier work in patent US20160185712A1, “PHOTO-ACTIVATED HYDROGELS” (L'OREAL, priority 2014, published 2016).

Each structure is given as a SMILES string.

Consider `O=C1c2ccccc2C(=O)c2cc(S(=O)(=O)[O-])ccc21.[Na+]` [anthraquinone-2-sulfonic acid sodium salt], for which the water solubility entry is listed as “water soluble”.
